# Data taken from patent EP4650002A1 (Ludwig-Maximilians-Universität, priority 2024, dated 2025).
# Molecular target: T1, human TLX (Homo sapiens, UniProt Q9Y466)
# T1 construct: expressed in transfected cells; host or cells: HEK293T
# Assay: Gal4 hybrid reporter gene assay (TLX modulation)
# Type: cell-based
# Parameters: key to relative reporter activity: fraction of DMSO control (DMSO = 1)
# Settings: for relative reporter activity: DMSO control = 1; for EC50: Gal4-TLX hybrid reporter in HEK293T cells, 16 h incubation
# Method: In the Tables, the TLX relative reporter activity is expressed as EC50 (in µM) for each listed compound. "EC50" refers to a measure of the concentration of a compound which induces a biological response halfway between the baseline and maximum after a specified exposure time. […] The EC50 is measured via a hybrid reporter gene assay, employing the transfection of a reporter (firefly luciferase with Gal4 response element), a control gene (Renilla luciferase), a transcriptional activator (Gal4-VP16) and a hybrid receptor consisting of the TLX ligand binding domain (LBD) and the Gal4 DNA binding domain (DBD).
# Hybrid reporter gene assays. […] After 24 h, medium was changed to Opti-MEM without supplements and cells were transiently transfected using Lipofectamine LTX reagent (Invitrogen, Carlsbad, CA, USA) according to the manufacturer's protocol. Five hours after transfection, cells were incubated with the test compounds in Opti-MEM supplemented with penicillin (100 U/mL), streptomycin (100 µg/mL) and 0.1% DMSO for 16 h before luciferase activity was measured using the Dual-Glo Luciferase Assay System (Promega) according to the manufacturer's protocol on a Tecan Spark luminometer (Tecan Deutschland GmbH, Crailsheim, Germany). Firefly luminescence was divided by Renilla luminescence and multiplied by 1000 resulting in relative light units (RLU) to normalize for transfection efficiency and cell growth. Fold activation was obtained by dividing the mean RLU of test compound by the mean RLU of the untreated control. All samples were tested in at least three biologically independent experiments in duplicates. For dose-response curve fitting and calculation of EC50 values, the equation "[Agonist] vs. response -- Variable slope (four parameters)" was used in GraphPad Prism (version 7.00, GraphPad Software, La Jolla, CA, USA).
# [1] = minimal remaining or maximum reporter activity after treatment, in brackets below the EC50, <1 agonism, >1 inverse agonism
# T1 sequence (Q9Y466 155-383 limits assumed): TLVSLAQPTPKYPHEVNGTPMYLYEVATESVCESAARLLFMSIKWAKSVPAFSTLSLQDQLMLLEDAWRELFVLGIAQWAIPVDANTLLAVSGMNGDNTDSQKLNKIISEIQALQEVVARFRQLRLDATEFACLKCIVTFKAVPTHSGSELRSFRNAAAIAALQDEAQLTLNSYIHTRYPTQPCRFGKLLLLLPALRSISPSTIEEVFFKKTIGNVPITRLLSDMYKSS
SMILES,EC50,relative reporter activity [1],other results
"Cc1cn(-c2cc(NC(=O)c3cccc4ccccc34)cc(C(F)(F)F)c2)cn1 [compound 6, N-(3-(4-methyl-1H-imidazol-1-yl)-5-(trifluoromethyl)phenyl)-1-naphthamide]",–,–,relative reporter activity (at 3 µM): (0.79±0.03 at 3 µM)
"Cc1cn(-c2cc(NC(=O)c3ccncc3)cc(C(F)(F)F)c2)cn1 [compound 11, N-(3-(4-methyl-1H-imidazol-1-yl)-5-(trifluoromethyl)phenyl)isonicotinamide]",–,–,relative reporter activity (at 20 µM): (0.41±0.05 at 20 µM)
"Cc1cn(-c2cc(NC(=O)c3ccnc(Cl)c3)cc(C(F)(F)F)c2)cn1 [compound 12, 2-chloro-N-(3-(4-methyl-1H-imidazol-1-yl)-5-(trifluoromethyl)phenyl)-isonicotinamide]",–,–,relative reporter activity (at 10 µM): (0.71±0.05 at 10 µM)
"Cc1cn(-c2cc(NC(=O)c3ccccc3)cc(C(F)(F)F)c2)cn1 [compound 14, N-(3-(4-methyl-1H-imidazol-1-yl)-5-(trifluoromethyl)phenyl)benzamide]",8 ± 1 µM,0.38±0.08,–
"Cc1cn(-c2cc(NC(=O)c3ccc(Cl)c(Cl)c3)cc(C(F)(F)F)c2)cn1 [compound 16, 3,4-dichloro-N-(3-(4-methyl-1H-imidazol-1-yl)-5-(trifluoromethyl)phenyl)-benzamide]",2.1 ± 0.9 µM,0.33±0.12,–
"COc1ccc(C(=O)Nc2cc(-n3cnc(C)c3)cc(C(F)(F)F)c2)cc1 [compound 17, 4-methoxy-N-(3-(4-methyl-1H-imidazol-1-yl)-5-(trifluoromethyl)phenyl)benzamide]",5.2 ± 0.4 µM,0.42±0.03,–
"Cc1ccc(C(=O)Nc2cc(-n3cnc(C)c3)cc(C(F)(F)F)c2)cc1 [compound 18, 4-methyl-N-(3-(4-methyl-1H-imidazol-1-yl)-5-(trifluoromethyl)phenyl)benzamide]",1.4 ± 0.7 µM,0.59±0.06,–
"Cc1cn(-c2cc(NC(=O)c3ccc(C(F)(F)F)cc3)cc(C(F)(F)F)c2)cn1 [compound 19, N-(3-(4-mefhyl-1H-imidazol-1-yl)-5-(trifluoromefhyl)phenyl)-4-(frifluoromethyl)-benzamide]",3.3 ± 1.2 µM,0.59±0.10,–
"Nc1cc(-n2ccnc2)cc(C(F)(F)F)c1 [compound 33, 3-(1H-imidazol-1-yl)-5-(trifluoromethyl)aniline]",4.4 ± 0.9 µM,–,–
"O=C(Nc1cc(-n2cnc3ccccc32)cc(C(F)(F)F)c1)c1ccnc2ccccc12 [compound 36, N-(3-(1H-benzo[d]imidazol-1-yl)-5-(trifluoromethyl)phenyl)quinoline-4-carboxamide]",–,–,relative reporter activity (at 10 µM): (0.24±0.04 at 10 µM
"Cc1cnn(-c2cc(N)cc(C(F)(F)F)c2)c1 [compound 37, 3-(4-methyl-1H-pyrazol-1-yl)-5-(trifluoromethyl)aniline]",–,–,relative reporter activity (at 100 µM): (0.48±0.09 at 100 µM)
"Nc1cc(-c2cn[nH]c2)cc(C(F)(F)F)c1 [compound 39, 3-(1H-Pyrazol-4-yl)-5-(trifluoromethyl)aniline]",–,–,relative reporter activity (at 50 µM): (0.35±0.06 at 50 µM)
"Nc1cc(-c2cnoc2)cc(C(F)(F)F)c1 [compound 40, 3-(isoxazol-4-yl)-5-(trifluoromethyl)aniline]",3.2 ± 1.2 µM,0.47±0.06,–
"Cc1noc(C)c1-c1cc(N)cc(C(F)(F)F)c1 [compound 42, 3-(3,5-dimethylisoxazol-4-yl)-5-(trifluoromethyl)aniline]",–,–,relative reporter activity (at 10 µM): (0.70±0.07 at 10 µM)
"Cc1cc(-c2cc(N)cc(C(F)(F)F)c2)n[nH]1 [compound 43, 3-(5-methyl-1H-pyrazol-3-yl)-5-(trifluoromethyl)aniline]",–,–,relative reporter activity (at 100 µM): (0.29±0.05 at 100 µM)
"Cn1cnc(-c2cc(N)cc(C(F)(F)F)c2)n1 [compound 44, 3-(1-methyl-1H-1,2,4-triazol-3-yl)-5-(trifluoromethyl)aniline]",–,–,relative reporter activity (at 100 µM): (0.63±0.04 at 100 µM)
"Cc1cc(-c2cc(N)cc(C(F)(F)F)c2)nn1C [compound 45, 3-(1,5-dimethyl-1H-pyrazol-3-yl)-5-(trifluoromethyl)aniline]",–,–,relative reporter activity (at 100 µM): (0.56±0.12 at 100 µM)
"Cc1cc(C(=O)Nc2cc(N)cc(C(F)(F)F)c2)nn1C [compound 46, N-(3-amino-5-(trifluoromethyl)phenyl)-1,5-dimethyl-1H-pyrazole-3-carboxamide]",11 ± 5 µM,0.20±0.02,–
"Cc1nc(-c2cc(N)cc(C(F)(F)F)c2)cn1C [compound 50, 3-(1,2-dimethyl-1H-imidazol-4-yl)-5-(trifluoromethyl)aniline]",–,–,relative reporter activity (at 100 µM): (0.70±0.06 at 100 µM)
"Cn1cc(-c2cc(N)cc(C(F)(F)F)c2)c2ccccc21 [compound 51, 3-(1-Methyl-1H-indol-3-yl)-5-(trifluoromethyl)aniline]",9.1 ± 0.7 µM,–,–
"Cn1cc(-c2cc(N)cc(C(F)(F)F)c2)c2cccnc21 [compound 52, 3-(1-methyl-1H-pyrrolo[2,3-b]pyridin-3-yl)-5-(trifluoromethyl)aniline]",3.5 ± 0.8 µM,–,–
"Nc1cc(-c2nccs2)cc(C(F)(F)F)c1 [compound 53, 3-(thiazol-2-yl)-5-(trifluoromethyl)aniline]",–,–,relative reporter activity (at 100 µM): (0.63±0.10 at 100 µM)
"Cc1cnc(-c2cc(N)cc(C(F)(F)F)c2)s1 [compound 54, 3-(5-methylthiazol-2-yl)-5-(trifluoromethyl)aniline]",–,–,relative reporter activity (at 30 µM): (0.46±0.21 at 30 µM)
"Cc1ccc(-c2cc(N)cc(C(F)(F)F)c2)s1 [compound 55, 3-(5-methylthiophen-2-yl)-5-(trifluoromethyl)aniline]",–,–,relative reporter activity (at 30 µM): 2.2±0.6
"Cc1cc(C)c(-c2cc(N)cc(C(F)(F)F)c2)s1 [compound 56, 3-(3,5-dimethylthiophen-2-yl)-5-(trifluoromethyl)aniline]",–,–,relative reporter activity (at 50 µM): 3.4±0.3
"COC(=O)c1ccc(-c2cc(N)cc(C(F)(F)F)c2)s1 [compound 58, methyl 5-(3-amino-5-(trifluoromethyl)phenyl)thiophene-2-carboxylate]",3.5 ± 1.8 µM,–,–
"Cc1cc(-c2cc(N)cc(C(F)(F)F)c2)cs1 [compound 59, 3-(5-methylthiophen-3-yl)-5-(trifluoromethyl)aniline]",–,–,relative reporter activity (at 30 µM): 2.8±0.5

# Further lines, with some results ahead:
EC50,relative reporter activity [1],SMILES,other results
1.1 ± 0.3 µM,0.57±0.04,"CCOc1cc(C(=O)Nc2cc(-n3cnc(C)c3)cc(C(F)(F)F)c2)c2ccccc2n1 [compound 8, 2-ethoxy-N-(3-(4-methyl-1H-imidazol-1-yl)-5-(trifluoromethyl)phenyl)quinoline-4-carboxamide]",–
2.3 ± 0.3 µM,0.41±0.05,"Cc1cn(-c2cc(NC(=O)c3ccc(Cl)cc3)cc(C(F)(F)F)c2)cn1 [compound 15, 4-chloro-N-(3-(4-methyl-1H-imidazol-1-yl)-5-(trifluoromethyl)phenyl)benzamide]",–
1.4 ± 0.3 µM,0.21±0.07,"Cc1cn(-c2cc(NC(=O)Cc3cccnc3)cc(C(F)(F)F)c2)cn1 [compound 21, N-(3-(4-methyl-1H-imidazol-1-yl)-5-(trifluoromethyl)phenyl)-2-(pyridin-3-yl)acetamide]",–
1.8 ± 0.4 µM,0.34±0.11,"Cc1cn(-c2cc(NC(=O)c3ccc(Cl)c4ccccc34)cc(C(F)(F)F)c2)cn1 [compound 31, 4-chloro-N-(3-(4-methyl-1H-imidazol-1-yl)-5-(trifluoromethyl)phenyl)-1-naphthamide]",–
15 ± 7 µM,0.23±0.15,"Nc1cc(-n2cccc2)cc(C(F)(F)F)c1 [compound 34, 3-(1H-pyrrol-1-yl)-5-(trifluoromethyl)aniline]",–
2.4 ± 0.9 µM,–,"Nc1cc(-n2cnc3ccccc32)cc(C(F)(F)F)c1 [compound 35, 3-(1H-benzo[d]imidazol-1-yl)-5-(trifluoromethyl)aniline]",–
9.5 ± 4.4 µM,0.43±0.11,"Cn1cc(-c2cc(N)cc(C(F)(F)F)c2)cn1 [compound 38, 3-(1-methyl-1H-pyrazol-4-yl)-5-(trifluoromethyl)aniline]",–
4.2 ± 0.9 µM,0.34±0.09,"Cc1nn(C)c(C)c1-c1cc(N)cc(C(F)(F)F)c1 [compound 41, 3-(trifluoromethyl)-5-(1,3,5-trimethyl-1H-pyrazol-4-yl)aniline]",–
3.9 ± 1.6 µM,0.49±0.11,"Cc1c(-c2cc(N)cc(C(F)(F)F)c2)cnn1C [compound 49, 3-(1,5-dimethyl-1H-pyrazol-4-yl)-5-(trifluoromethyl)aniline]",–
4.4 ± 1.6 µM,–,"CC(=O)c1ccc(-c2cc(N)cc(C(F)(F)F)c2)s1 [compound 57, 1-(5-(3-amino-5-(trifluoromethyl)phenyl)thiophen-2-yl)ethan-1-one]",–
